Test results reported in patent publication US9028856B2, “Synergistic pesticide compositions” (priority 2008, dated 2015).

Experiments:
[1] = test system: Argentine ant, Linepithema humile; test: Knockdown/mortality of ant workers under continuous exposure on treated glazed tile; conditions: for toxicity / efficacy of the substance alone (summary in words): Argentine ant, treated glazed tile; for Average % Knockdown & Mortality after 3 hr / Average % Knockdown & Mortality after 7 hr / Average % Knockdown & Mortality after 2 hr / Average % Knockdown & Mortality after 5 hr / Average % Knockdown & Mortality after 4 hr / Average % Knockdown & Mortality after 1 hr / Average % Knockdown & Mortality after 30 min / Average % Knockdown & Mortality after 24 hr / Average % Knockdown & Mortality after 6 hr / Average % Knockdown & Mortality after 15 min / Average % Knockdown & Mortality after 18 hr: glazed tile
Description: (§1) Solutions of imidacloprid at 0.5% AI were prepared with and without methyl oleate @0.1, 1.0 and 5.0% in acetone. Treatments were applied using a micropipette to dispense 1 ml of test solution evenly on a 6″×6″ glazed tile. Actual coverage was about 5″×5″ (or 161 cm^2) for easy handling. Treatments were allowed to dry overnight. Ten Argentine ant workers were placed within a fluon or talc-coated PVC ring (φ7.6 cm×H 5.1 cm) under continuous exposure. A small vial filled with a cotton ball soaked in water was added as a drinking source after 3 hours. Treatments were replicated a minimum of three times. Evaluations for ant knockdown/mortality were made at various intervals and at 24 hours after exposure.
as §1, with “MATERIALS AND METHODS: Solutions” for “Solutions”, “linoleate” for “oleate”
as §1, with “MATERIALS AND METHODS: Solutions of” for “Solutions of”, “without methyl palmitate @0.1, 1.0” for “without methyl oleate @0.1, 1.0”, “after exposure. […]” for “after exposure.”

[2] = test system: bait averse/resistant German cockroach (T-164 strain); test: Knockdown/mortality of male cockroaches under continuous exposure on treated glazed tile; assay type: in vivo, Blattella germanica; design: Average % Knockdown & Mortality after 5 hr / Average % Knockdown & Mortality after 30 min: concentration or dose not given beside the values; conditions: for toxicity / efficacy of the substance alone (summary in words): German cockroach T-164, treated glazed tile; for Average % Knockdown & Mortality after 3 hr: Table 23, imidacloprid/tritylchloride in acetone; for Average % Knockdown & Mortality after 3 hr / Average % Knockdown & Mortality after 45 min: T-164 strain; for Average % Knockdown & Mortality after 45 min: Table 24, imidacloprid/dibutyl sebacate (DBS) in acetone
[3] = Table 7 (Ex. 4), continuous exposure, listed as Oleic acid (0.1%)
[4] = Table 7 (Ex. 4), continuous exposure, listed as Oleic acid (5%)
[5] = 2 hr, Table 22, imidacloprid/tritylchloride in acetone, continuous exposure
[6] = Table 22, imidacloprid/tritylchloride in acetone, continuous exposure
[7] = 2 hr, Table 25, imidacloprid/dibutyl sebacate (DBS) in acetone
[8] = 4 hr, Table 25, imidacloprid/dibutyl sebacate (DBS) in acetone
[9] = Table 14 (Ex. 11), continuous exposure
[10] = Table 15 (Ex. 12), glazed tile, continuous exposure
[11] = Table 15 (Ex. 12), glazed tile, continuous exposure, listed as Butylated hydroxyanisole (BHA) (1%)
[12] = Table 15 (Ex. 12), glazed tile, continuous exposure, listed as Butylated hydroxyanisole (BHA) (5%)
[13] = Table 19 (Ex. 16), continuous exposure
[14] = Table 19 (Ex. 16), continuous exposure, listed as TBHQ (0.1%)
[15] = Table 19 (Ex. 16), continuous exposure, listed as TBHQ (1%)
[16] = Table 19 (Ex. 16), continuous exposure, listed as TBHQ (5%)
[17] = Table 18 (Ex. 15), glazed tile, continuous exposure, listed as TBHQ (1%)
[18] = Table 18 (Ex. 15), glazed tile, continuous exposure, listed as TBHQ (5%)
[19] = Table 8 (Ex. 5), continuous exposure, listed as Methyl Oleate (1%)
[20] = Table 8 (Ex. 5), continuous exposure, listed as Methyl Oleate (5%)
[21] = Table 16 (Ex. 13), continuous exposure, listed as Butylated hydroxytoluene (BHT) (1%)
[22] = Table 16 (Ex. 13), continuous exposure, listed as Butylated hydroxytoluene (BHT) (5%)

## CCCCCCCC/C=C\CCCCCCCC(=O)O [Oleic acid]
[1]
  toxicity / efficacy of the substance alone (summary in words): at the high rates (1 & 5%) was toxic to the Argentine ants, but not at the low rate (0.1%)
[1]; [3]
  Average % Knockdown & Mortality after 3 hr: 0%
  Average % Knockdown & Mortality after 7 hr: 0%
[1]; Table 7 (Ex. 4), continuous exposure, listed as Oleic acid (1%)
  Average % Knockdown & Mortality after 3 hr: 82%
[1]; [4]
  Average % Knockdown & Mortality after 3 hr: 100%
  Average % Knockdown & Mortality after 7 hr: 100%
[2]
  toxicity / efficacy of the substance alone (summary in words): toxic to German cockroaches at the high rate (5%), but not toxic at the two low rates
[2]; Table 6 (Ex. 3), glazed tile, continuous exposure
  Average % Knockdown & Mortality after 15 min: 0%

## O=C(O)CCc1ccccc1 [benzenepropanoic acid]
[1]
  toxicity / efficacy of the substance alone (summary in words): not toxic
[1]; Table 4 (Ex. 1), continuous exposure
  Average % Knockdown & Mortality after 3 hr: 0%
[1]; Table 4 (Ex. 1), continuous exposure, listed as Benzenepropanoic acid(1%)
  Average % Knockdown & Mortality after 7 hr: 0%
[1]; Table 4 (Ex. 1), continuous exposure, listed as Benzenepropanoic acid(5%)
  Average % Knockdown & Mortality after 7 hr: 7%
[2]
  toxicity / efficacy of the substance alone (summary in words): slightly to not toxic
[2]; Table 5 (Ex. 2), glazed tile, continuous exposure
  Average % Knockdown & Mortality after 15 min: 0%

## ClC(c1ccccc1)(c1ccccc1)c1ccccc1 [Tritylchloride (0.1%)]
[1]; [5]
  Average % Knockdown & Mortality after 2 hr: 0%
[1]; [6]
  Average % Knockdown & Mortality after 5 hr: 0%
[2]; glazed tile
  Average % Knockdown & Mortality after 3 hr: 0%

## CCCCCCCCCCCCCCCC(=O)OC [Methyl palmitate, methyl palmitate]
[1]
  toxicity / efficacy of the substance alone (summary in words): not toxic
[1]; Table 12 (Ex. 9), continuous exposure
  Average % Knockdown & Mortality after 3 hr: 0%
[1]; Table 12 (Ex. 9), continuous exposure, listed as Methyl Palmitate (1%)
  Average % Knockdown & Mortality after 7 hr: 0%
[1]; Table 12 (Ex. 9), continuous exposure, listed as Methyl Palmitate (5%)
  Average % Knockdown & Mortality after 7 hr: 7%
[2]
  toxicity / efficacy of the substance alone (summary in words): not toxic
[2]; Table 13 (Ex. 10), glazed tile, continuous exposure
  Average % Knockdown & Mortality after 4 hr: 0%

## CCCCOC(=O)CCCCCCCCC(=O)OCCCC [DBS (1%)]
[1]; [7]
  Average % Knockdown & Mortality after 2 hr: 0%
[1]; [8]
  Average % Knockdown & Mortality after 4 hr: 77%
[2]; glazed tile
  Average % Knockdown & Mortality after 45 min: 0%

## COc1ccc(O)c(C(C)(C)C)c1 [BHA, butylated hydroxyanisole]
[1]
  toxicity / efficacy of the substance alone (summary in words): delayed toxicity
[1]; [9]
  Average % Knockdown & Mortality after 1 hr: 0%
  Average % Knockdown & Mortality after 2 hr: 0%
[1]; Table 14 (Ex. 11), continuous exposure, UTC 63% at 24 hr
  Average % Knockdown & Mortality after 30 min: 0%
[1]; Table 14 (Ex. 11), continuous exposure, UTC 63% at 24 hr, listed as Butylated hydroxyanisole (BHA) (0.1%)
  Average % Knockdown & Mortality after 24 hr: 37%
[1]; Table 14 (Ex. 11), continuous exposure, UTC 63% at 24 hr, listed as Butylated hydroxyanisole (BHA) (1%)
  Average % Knockdown & Mortality after 24 hr: 40%
[1]; Table 14 (Ex. 11), continuous exposure, UTC 63% at 24 hr, listed as Butylated hydroxyanisole (BHA) (5%)
  Average % Knockdown & Mortality after 24 hr: 74%
[1]; Table 14 (Ex. 11), continuous exposure, listed as Butylated hydroxyanisole (BHA) (0.1%)
  Average % Knockdown & Mortality after 4 hr: 10%
[1]; Table 14 (Ex. 11), continuous exposure, listed as Butylated hydroxyanisole (BHA) (1%)
  Average % Knockdown & Mortality after 4 hr: 3%
[1]; Table 14 (Ex. 11), continuous exposure, listed as Butylated hydroxyanisole (BHA) (5%)
  Average % Knockdown & Mortality after 4 hr: 19%
[2]
  toxicity / efficacy of the substance alone (summary in words): at the high rate (5%) was toxic to the German cockroach, but not at its lower rates (1.0 and 0.1%)
[2]; [10]
  Average % Knockdown & Mortality after 30 min: 0%
  Average % Knockdown & Mortality after 1 hr: 0%
[2]; Table 15 (Ex. 12), glazed tile, continuous exposure, listed as Butylated hydroxyanisole (BHA) (0.1%)
  Average % Knockdown & Mortality after 24 hr: 20%
[2]; [11]
  Average % Knockdown & Mortality after 2 hr: 0%
  Average % Knockdown & Mortality after 4 hr: 0%
  Average % Knockdown & Mortality after 24 hr: 0%
[2]; [12]
  Average % Knockdown & Mortality after 2 hr: 20%
  Average % Knockdown & Mortality after 4 hr: 20%
  Average % Knockdown & Mortality after 24 hr: 73%

## CC(C)(C)c1cc(O)ccc1O [TBHQ, tertiary butyl dihydroxyquinone]
[1]
  toxicity / efficacy of the substance alone (summary in words): toxic effect
[1]; [13]
  Average % Knockdown & Mortality after 30 min: 0%
  Average % Knockdown & Mortality after 1 hr: 0%
[1]; [14]
  Average % Knockdown & Mortality after 6 hr: 7%
  Average % Knockdown & Mortality after 24 hr: 11%
[1]; [15]
  Average % Knockdown & Mortality after 4 hr: 0%
  Average % Knockdown & Mortality after 6 hr: 10%
[1]; [16]
  Average % Knockdown & Mortality after 4 hr: 10%
  Average % Knockdown & Mortality after 6 hr: 23%
  Average % Knockdown & Mortality after 24 hr: 100%
[2]
  toxicity / efficacy of the substance alone (summary in words): at the higher rates (1 & 5%) showed delayed toxic effect
[2]; Table 18 (Ex. 15), glazed tile, continuous exposure
  Average % Knockdown & Mortality after 30 min: 0%
[2]; Table 18 (Ex. 15), glazed tile, continuous exposure, listed as TBHQ (0.1%)
  Average % Knockdown & Mortality after 24 hr: 7%
[2]; [17]
  Average % Knockdown & Mortality after 1 hr: 0%
  Average % Knockdown & Mortality after 2 hr: 0%
  Average % Knockdown & Mortality after 4 hr: 0%
  Average % Knockdown & Mortality after 24 hr: 40%
[2]; [18]
  Average % Knockdown & Mortality after 1 hr: 7%
  Average % Knockdown & Mortality after 2 hr: 7%
  Average % Knockdown & Mortality after 4 hr: 7%
  Average % Knockdown & Mortality after 24 hr: 47%

## ClC(c1ccccc1)(c1ccccc1)c1ccccc1 [Tritylchloride (5%)]
[1]; [5]
  Average % Knockdown & Mortality after 2 hr: 0%
[1]; [6]
  Average % Knockdown & Mortality after 5 hr: 0%
[2]; glazed tile
  Average % Knockdown & Mortality after 3 hr: 0%

## ClC(c1ccccc1)(c1ccccc1)c1ccccc1 [Tritylchloride, triphenyl methyl chloride (tritylchloride)]
[1]
  toxicity / efficacy of the substance alone (summary in words): not toxic
[2]
  toxicity / efficacy of the substance alone (summary in words): not toxic

## ClC(c1ccccc1)(c1ccccc1)c1ccccc1 [Tritylchloride (1%)]
[1]; [5]
  Average % Knockdown & Mortality after 2 hr: 0%
[1]; [6]
  Average % Knockdown & Mortality after 5 hr: 0%
[2]; glazed tile
  Average % Knockdown & Mortality after 3 hr: 0%

## CCCCCCCC/C=C\CCCCCCCC(=O)OC [Methyl oleate, methyl oleate]
[1]
  toxicity / efficacy of the substance alone (summary in words): toxic
[1]; Table 8 (Ex. 5), continuous exposure, listed as Methyl Oleate (0.1%)
  Average % Knockdown & Mortality after 4 hr: 13%
[1]; [19]
  Average % Knockdown & Mortality after 15 min: 0%
  Average % Knockdown & Mortality after 4 hr: 55%
[1]; [20]
  Average % Knockdown & Mortality after 15 min: 3%
  Average % Knockdown & Mortality after 4 hr: 100%
[2]
  toxicity / efficacy of the substance alone (summary in words): at the higher rates (1 & 5%) showed delayed toxic effect
[2]; Table 9 (Ex. 6), glazed tile, continuous exposure, listed as Methyl Oleate (1%)
  Average % Knockdown & Mortality after 15 min: 0%
[2]; Table 9 (Ex. 6), glazed tile, continuous exposure, listed as Methyl Oleate (5%)
  Average % Knockdown & Mortality after 15 min: 7%

## CCCCOC(=O)CCCCCCCCC(=O)OCCCC [DBS (0.1%)]
[1]; [7]
  Average % Knockdown & Mortality after 2 hr: 0%
[1]; [8]
  Average % Knockdown & Mortality after 4 hr: 9%
[2]; glazed tile
  Average % Knockdown & Mortality after 45 min: 0%

## Cc1cc(C(C)(C)C)c(O)c(C(C)(C)C)c1 [BHT, butylated hydroxytoluene]
[1]
  toxicity / efficacy of the substance alone (summary in words): toxic
[1]; Table 16 (Ex. 13), continuous exposure, listed as Butylated hydroxytoluene (BHT) (0.1%)
  Average % Knockdown & Mortality after 18 hr: 7%
[1]; [21]
  Average % Knockdown & Mortality after 2 hr: 3%
  Average % Knockdown & Mortality after 18 hr: 3%
[1]; [22]
  Average % Knockdown & Mortality after 2 hr: 7%
  Average % Knockdown & Mortality after 18 hr: 79%
[2]
  toxicity / efficacy of the substance alone (summary in words): not toxic
[2]; Table 17 (Ex. 14), glazed tile, continuous exposure
  Average % Knockdown & Mortality after 5 hr: 0%

## CCCCOC(=O)CCCCCCCCC(=O)OCCCC [DBS, dibutyl sebacate]
[1]
  toxicity / efficacy of the substance alone (summary in words): toxic to the Argentine ants, and the lower rates (0.1 & 1.0%) of DBS showed delayed toxicity
[2]
  toxicity / efficacy of the substance alone (summary in words): not toxic to German cockroaches, except at its highest rate (5%)
